Laboratory results taken from PubChem BioAssay AID1845200 (Molecular Pharmacology Branch, DTP, NCI, 2023).

System: ASPS-1 complex tumor spheroids, viability
Test: Anticancer human tumor ASPS-1 cell line growth inhibition;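 note: spheroids exposed to agents for 7 days after 3 days of growth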;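 for viability, T/C: 100% = DMSO vehicle treated spheroids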
Details: for viability, T/C: stronger effect = lower value
Text: Multicellular complex tumor spheroid response to DNA repair inhibitors in combination with DNA-damaging drugs
This study explores the anticancer activities of DNA-damaging drugs and inhibitors of DNA damage repair, both as single agents and in combinations. Complex tumor spheroids comprised of malignant cells, endothelial cells and mesenchymal stem cells served as an in vitro model for human solid tumors. This model system incorporates physiologically relevant features and patient-derived or established malignant cell lines with clinically relevant genetic alterations from many tumor types. Twenty-six patient-derived or established malignant cell lines were evaluated representing sarcoma, melanoma, small cell lung cancer (SCLC), non-small cell lung cancer (NSCLC), as well as bladder, ovarian and pancreatic cancers. The concentration ranges selected for each drug and investigational agent were based upon clinically achievable concentrations if the clinical Cmax of the agent was known.
Compounds. The drugs and compounds olaparib (NSC753686), talazoparib (NSC767125), berzosertib (NSC777718), elimusertib (NSC800525), nedisertib (NSC802822), VX-984 (NSC792969), AZD-1390 (NSC803789), temozolomide (NSC362856), topotecan (NSC609699), trabectedin (NSC813783), staurosporine (NSC755774), and gemcitabine (NSC613327) were obtained from the National Cancer Institute (NCI) Developmental Therapeutics Program Chemical Repository. The FDA-approved anticancer drug set is available from the Developmental Therapeutics Program at https://dtp.cancer.gov/organization/dscb/obtaining/available_plates.htm. […] The stock solutions were prepared in dimethyl sulfoxide (DMSO, Sigma-Aldrich, St. Louis, MO, cat. D2650) at 400-fold the tested concentration and stored at -70 degrees C. Prior to their use, the stock solutions were diluted in fresh medium and the final DMSO concentration in the assay was 0.25% (v/v). All drugs and investigational agents were tested over a range starting from a high concentration at or near the clinical Cmax and decreasing in half-log increments. If the clinical Cmax for an agent had not been determined, the highest concentration tested was 10 microM.
Cell Lines. The patient-derived cancer cell (PDC) lines: 156681-154-R-J1-PDC, 283228-195-R-J1-PDC, 287954-098-R-J1-PDC, 292921-168-R-J2-PDC, 349418-098-R-PDC, 425362-245-T-J1-PDC, 556581-035-R-J1-PDC, and BL0293-F563-PDC were received from the NCI Patient-Derived Models Repository (PDMR, https://pdmr.cancer.gov). The established cell lines HS-SY-2 (RRID:CVCL_8719), MPNST, and SYO-1 (RRID:CVCL_7146) were obtained from the Sloan Kettering Institute. The alveolar soft parts sarcoma cell line ASPS-1 (RRID:CVCL_S738) was established at the NCI and grown from internal seed stocks. The following established cell lines were purchased from the American Type Culture Collection (ATCC, Manassas, VA): G-401 (ATCC, cat. CRL-1441, RRID:CVCL_0270), SW982 (ATCC, cat. HTB-93, RRID:CVCL_1734), VA-ES-BJ (ATCC, cat. CRL-2138, RRID:CVCL_1785), NCI-H719 (ATCC, cat. CRL-5837, RRID:CVCL_1582), NCI-H196 (ATCC, cat. CRL-5823, RRID:CVCL_1509), NCI-H841 (ATCC, cat. CRL-5845, RRID:CVCL_1595), NCI-H1618 (ATCC, cat. CRL-5879, RRID:CVCL_1480), NCI-H1876 (ATCC, cat. CRL-5902, RRID:CVCL_1503), DMS 114 (ATCC, cat. CRL-2066; RRID:CVCL_1174), NCI-H211 (ATCC, cat. CRL-5824; RRID:CVCL_1529), and SW 1271 (ATCC, cat. CRL-2177, RRID:CVCL_1716). The small cell lung cancer cell line COR-L88 was purchased from Sigma-Aldrich (cat. 92031917-1VL, RRID:CVCL_1141). The non-small cell lung cancer cell lines NCI-H226 (RRID:CVCL_1544) and NCI-H322M (RRID:CVCL_1557) were established at the NCI and grown from internal seed stocks. Pooled donor human umbilical vein endothelial cells (HUVEC, Lonza, cat. CC-2519) and human mesenchymal stem cells (hMSC, Lonza, cat. PT-2501) were purchased from Lonza (Walkersville, MD).
Cell Culture. All cells were maintained in an incubator at 37 degrees C and 5% CO2 with 95% humidity. […]

[1] = curve of first compound, second compound 0.003 µM
[2] = second compound 0.003 µM, first compound 0.0316 µM
[3] = second compound 0.003 µM, first compound 0.1 µM
[4] = second compound 0.003 µM, first compound 0.316 µM
[5] = second compound 0.003 µM, first compound 1 µM
[6] = second compound 0.003 µM, first compound 3.16 µM
[7] = second compound 0.003 µM, first compound 10 µM

## CC(C)n1c(=O)n(C)c2cnc3cc(F)c(-c4ccc(OCCCN5CCCCC5)nc4)cc3c21 + CC[C@@]1(O)C(=O)OCc2c1cc1n(c2=O)Cc2cc3c(CN(C)C)c(O)ccc3nc2-1
[1]
  IC50: 6680 nM
Curve of first compound, second compound 0.00949 µM
  IC50: 5200 nM
Curve of first compound, second compound 0.03 µM
  IC50: 184 nM
Curve of first compound, second compound 0.0949 µM
  IC50: 161 nM
Curve of first compound, second compound 0.3 µM
  IC50: 188 nM
[2]
  viability, T/C: 99.3%
[3]
  viability, T/C: 99.6%
[4]
  viability, T/C: 108%
[5]
  viability, T/C: 98%
[6]
  viability, T/C: 82.9%
[7]
  viability, T/C: 32.4%
Second compound 0.00949 µM, first compound 0.0316 µM
  viability, T/C: 82.9%
Second compound 0.00949 µM, first compound 0.1 µM
  viability, T/C: 69.2%
Second compound 0.00949 µM, first compound 0.316 µM
  viability, T/C: 71%
Second compound 0.00949 µM, first compound 1 µM
  viability, T/C: 65.6%
Second compound 0.00949 µM, first compound 3.16 µM
  viability, T/C: 67%
Second compound 0.00949 µM, first compound 10 µM
  viability, T/C: 30.6%
Second compound 0.03 µM, first compound 0.0316 µM
  viability, T/C: 61.1%
Second compound 0.03 µM, first compound 0.1 µM
  viability, T/C: 53%
Second compound 0.03 µM, first compound 0.316 µM
  viability, T/C: 48%
Second compound 0.03 µM, first compound 1 µM
  viability, T/C: 31.3%
Second compound 0.03 µM, first compound 3.16 µM
  viability, T/C: 33.2%
Second compound 0.03 µM, first compound 10 µM
  viability, T/C: 27.1%
Second compound 0.0949 µM, first compound 0.0316 µM
  viability, T/C: 64.3%
Second compound 0.0949 µM, first compound 0.1 µM
  viability, T/C: 54.7%
Second compound 0.0949 µM, first compound 0.316 µM
  viability, T/C: 41.8%
Second compound 0.0949 µM, first compound 1 µM
  viability, T/C: 21.9%
Second compound 0.0949 µM, first compound 3.16 µM
  viability, T/C: 22.4%
Second compound 0.0949 µM, first compound 10 µM
  viability, T/C: 26.1%
Second compound 0.3 µM, first compound 0.0316 µM
  viability, T/C: 62.9%
Second compound 0.3 µM, first compound 0.1 µM
  viability, T/C: 60.6%
Second compound 0.3 µM, first compound 0.316 µM
  viability, T/C: 40.9%
Second compound 0.3 µM, first compound 1 µM
  viability, T/C: 22%
Second compound 0.3 µM, first compound 3.16 µM
  viability, T/C: 20.9%
Second compound 0.3 µM, first compound 10 µM
  viability, T/C: 24.2%

## COc1cc2c(cc1O)CCNC21CSC2c3c(OC(C)=O)c(C)c4c(c3C(COC1=O)N1C(O)C3Cc5cc(C)c(OC)c(O)c5C(C21)N3C)OCO4 (stereo unspecified)
Compound 30 pM
  viability, T/C: 103% [middle of 10 runs]
Compound 94.9 pM
  viability, T/C: 103% [middle of 10 runs]
Compound 0.0003 µM
  viability, T/C: 92.7% [middle of 10 runs]
Compound 0.000949 µM
  viability, T/C: 71.9% [middle of 10 runs]
Compound 0.003 µM
  viability, T/C: 23% [middle of 10 runs]
Compound alone, run of 12/16/2019
  IC50: 1.63 nM [middle of 10 runs]

## CC1COCCN1c1cc(-c2ccnn2C)c2ccnc(-c3ccn[nH]3)c2n1 (stereo unspecified) + COc1cc2c(cc1O)CCNC21CSC2c3c(OC(C)=O)c(C)c4c(c3C(COC1=O)N1C(O)C3Cc5cc(C)c(OC)c(O)c5C(C21)N3C)OCO4
Curve of first compound, second compound 30 pM
  IC50: 156 nM
Curve of first compound, second compound 94.9 pM
  IC50: 102 nM
Curve of first compound, second compound 0.0003 µM
  IC50: < 31.6 nM
Curve of first compound, second compound 0.000949 µM
  IC50: < 31.6 nM
[1]
  IC50: < 31.6 nM
Second compound 30 pM, first compound 0.0316 µM
  viability, T/C: 81.9%
Second compound 30 pM, first compound 0.1 µM
  viability, T/C: 53.9%
Second compound 30 pM, first compound 0.316 µM
  viability, T/C: 43.1%
Second compound 30 pM, first compound 1 µM
  viability, T/C: 42.9%
Second compound 30 pM, first compound 3.16 µM
  viability, T/C: 40.7%
Second compound 30 pM, first compound 10 µM
  viability, T/C: 38.9%
Second compound 94.9 pM, first compound 0.0316 µM
  viability, T/C: 71.7%
Second compound 94.9 pM, first compound 0.1 µM
  viability, T/C: 50.1%
Second compound 94.9 pM, first compound 0.316 µM
  viability, T/C: 37.5%
Second compound 94.9 pM, first compound 1 µM
  viability, T/C: 38.5%
Second compound 94.9 pM, first compound 3.16 µM
  viability, T/C: 40.6%
Second compound 94.9 pM, first compound 10 µM
  viability, T/C: 41%
Second compound 0.0003 µM, first compound 0.0316 µM
  viability, T/C: 46.4%
Second compound 0.0003 µM, first compound 0.1 µM
  viability, T/C: 37%
Second compound 0.0003 µM, first compound 0.316 µM
  viability, T/C: 32%
Second compound 0.0003 µM, first compound 1 µM
  viability, T/C: 30.1%
Second compound 0.0003 µM, first compound 3.16 µM
  viability, T/C: 43%
Second compound 0.0003 µM, first compound 10 µM
  viability, T/C: 38.3%
Second compound 0.000949 µM, first compound 0.0316 µM
  viability, T/C: 27.4%
Second compound 0.000949 µM, first compound 0.1 µM
  viability, T/C: 25%
Second compound 0.000949 µM, first compound 0.316 µM
  viability, T/C: 21.3%
Second compound 0.000949 µM, first compound 1 µM
  viability, T/C: 25.9%
Second compound 0.000949 µM, first compound 3.16 µM
  viability, T/C: 18.1%
Second compound 0.000949 µM, first compound 10 µM
  viability, T/C: 13.9%
[2]
  viability, T/C: 11.5%
[3]
  viability, T/C: 10.2%
[4]
  viability, T/C: 8.78%
[5]
  viability, T/C: 5.28%
[6]
  viability, T/C: 0.36%
[7]
  viability, T/C: 0.46%
